Assay results as given in publication PMC10744336, “Functional Identification of Olfactory Receptors of Cnaphalocrocis medinalis (Lepidoptera: Crambidae) for Plant Odor” (Insects, 2023).

How the values were obtained:
Experiment in all cases: two-electrode voltage clamp, Xenopus oocytes
Type in all cases: cell-based
CmedOR32/ORco = molecular target: T1, CmedOR32/ORco (Cnaphalocrocis medinalis, UniProt A0A1B2G2M9); conditions: agonist; with CmedORco; -80 mV; pH 7.5; 15 s stimulus; concentration contradictory (text 0.1 μM, figure legend 10^-4 M)
T1 construct: full ORF cloned in pT7Ts; cRNA co-injected with CmedORco in Xenopus oocytes; with Odorant receptor coreceptor
T1 sequence (A0A1B2G2M9 1-389): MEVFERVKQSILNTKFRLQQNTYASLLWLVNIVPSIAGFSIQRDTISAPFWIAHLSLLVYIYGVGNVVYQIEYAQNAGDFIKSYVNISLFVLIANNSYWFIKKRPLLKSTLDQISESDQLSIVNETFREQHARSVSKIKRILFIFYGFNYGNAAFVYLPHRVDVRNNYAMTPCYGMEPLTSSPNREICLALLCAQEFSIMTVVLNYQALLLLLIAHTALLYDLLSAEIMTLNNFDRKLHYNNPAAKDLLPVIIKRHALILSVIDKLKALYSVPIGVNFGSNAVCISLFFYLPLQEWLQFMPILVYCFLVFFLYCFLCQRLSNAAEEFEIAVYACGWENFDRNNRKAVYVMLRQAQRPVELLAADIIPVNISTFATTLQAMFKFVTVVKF
T1 sequence (H9XFD5 1-473 partner): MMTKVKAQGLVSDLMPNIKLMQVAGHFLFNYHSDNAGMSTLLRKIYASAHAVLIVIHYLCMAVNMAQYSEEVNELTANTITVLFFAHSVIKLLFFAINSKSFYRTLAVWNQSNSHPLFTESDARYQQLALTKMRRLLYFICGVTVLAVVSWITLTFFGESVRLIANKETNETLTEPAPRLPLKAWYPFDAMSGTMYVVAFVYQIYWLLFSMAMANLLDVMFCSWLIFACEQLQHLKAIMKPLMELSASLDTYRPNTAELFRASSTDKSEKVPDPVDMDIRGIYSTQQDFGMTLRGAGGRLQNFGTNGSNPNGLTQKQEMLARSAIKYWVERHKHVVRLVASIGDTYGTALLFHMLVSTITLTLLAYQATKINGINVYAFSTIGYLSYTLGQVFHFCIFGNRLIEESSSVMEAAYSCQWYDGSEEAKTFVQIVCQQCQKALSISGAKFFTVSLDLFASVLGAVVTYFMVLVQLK

CmedOR31/ORco = molecular target: T2, CmedOR31/ORco (Cnaphalocrocis medinalis, UniProt A0A1B2G2M5); conditions: agonist; with CmedORco; -80 mV; pH 7.5; 15 s stimulus; concentration contradictory (text 0.1 μM, figure legend 10^-4 M)
T2 construct: full ORF cloned in pT7Ts; cRNA co-injected with CmedORco in Xenopus oocytes; with Odorant receptor coreceptor
T2 sequence (A0A1B2G2M5 1-408): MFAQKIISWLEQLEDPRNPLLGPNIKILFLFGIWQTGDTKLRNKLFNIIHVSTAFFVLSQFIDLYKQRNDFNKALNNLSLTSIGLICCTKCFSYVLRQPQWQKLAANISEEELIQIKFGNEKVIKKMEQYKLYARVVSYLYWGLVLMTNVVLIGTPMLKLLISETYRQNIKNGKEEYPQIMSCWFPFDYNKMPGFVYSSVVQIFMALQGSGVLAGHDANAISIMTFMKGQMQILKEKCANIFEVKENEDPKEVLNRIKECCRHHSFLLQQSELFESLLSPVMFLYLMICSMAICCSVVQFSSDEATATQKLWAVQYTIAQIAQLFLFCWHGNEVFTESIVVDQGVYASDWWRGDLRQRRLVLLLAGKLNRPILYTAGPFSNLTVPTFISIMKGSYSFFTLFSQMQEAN
T2 sequence (H9XFD5 1-473 partner): T1 sequence (H9XFD5 1-473 partner)

CmedOR1/ORco [1] = molecular target: T3, CmedOR1/ORco (Cnaphalocrocis medinalis, UniProt A0A0U3A934); conditions: agonist, with CmedORco, -80 mV, pH 7.5, 15 s stimulus, concentration contradictory (text 0.1 μM, figure legend 10^-4 M)
T3 construct: gene or1; full ORF cloned in pT7Ts; cRNA co-injected with CmedORco in Xenopus oocytes; with Odorant receptor coreceptor
T3 sequence (A0A0U3A934 1-448): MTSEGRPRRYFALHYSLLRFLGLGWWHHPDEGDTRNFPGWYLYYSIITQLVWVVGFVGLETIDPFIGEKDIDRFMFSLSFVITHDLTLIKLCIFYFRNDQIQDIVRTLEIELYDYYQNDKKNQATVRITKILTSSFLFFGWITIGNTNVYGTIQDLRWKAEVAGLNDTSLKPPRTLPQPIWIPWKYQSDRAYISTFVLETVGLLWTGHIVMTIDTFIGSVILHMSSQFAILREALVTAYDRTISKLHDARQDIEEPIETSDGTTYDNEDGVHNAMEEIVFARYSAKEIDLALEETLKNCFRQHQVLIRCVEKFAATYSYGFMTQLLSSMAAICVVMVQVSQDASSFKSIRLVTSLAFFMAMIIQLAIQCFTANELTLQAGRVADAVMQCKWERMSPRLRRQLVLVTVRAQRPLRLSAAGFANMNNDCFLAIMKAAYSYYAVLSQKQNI
T3 sequence (H9XFD5 1-473 partner): T1 sequence (H9XFD5 1-473 partner)

CmedOR1/ORco [2] = molecular target: T3, CmedOR1/ORco; conditions: agonist; with CmedORco; -80 mV; pH 7.5; 15 s stimulus; 10^-4 M (b31 also prints 0.1 μM)

| SMILES | inward current (CmedOR32/ORco) | other results |
| --- | --- | --- |
| CCC/C=C/C=O [E2-hexenal] | plant foliar odorants cis-3-hexenyl acetate, E2-hexenal, and β-caryophyllene | – |
| CCCC(=O)OCC [Ethyl butyrate] | floral volatile compounds methyl 2-methoxybenzoate, β-myrcene, and ethyl butyrate | – |
| CC(C)=CCC/C(C)=C/CO [Geraniol] | – | inward current (CmedOR31/ORco): 128 ± 16 nA |
| C=CC(C)(O)CCC=C(C)C (stereo not shown) [Linalool] | – | inward current (CmedOR1/ORco [1]): 64 ± 5 nA |
| COC(=O)c1ccccc1OC [Methyl 2-methoxybenzoate] | floral volatile compounds methyl 2-methoxybenzoate, β-myrcene, and ethyl butyrate | – |
| OCCc1ccccc1 [Phenethyl alcohol] | – | inward current (CmedOR1/ORco [1]; printed as two isomers, phenethyl alcohol and 2-phenethyl alcohol): 130 ± 10 nA |
| O=CCc1ccccc1 [Phenylacetaldehyde] | – | inward current at 10^-4 M (CmedOR1/ORco [2]): 3200 ± 86 nA |
| CC/C=C\CCOC(C)=O [cis-3-Hexenyl acetate] | CmedOR32 showed nonspecific responses to plant foliar odorants cis-3-hexenyl acetate | – |
| C=C1CC/C=C(\C)CC[C@@H]2[C@@H]1CC2(C)C [β-Caryophyllene] | plant foliar odorants cis-3-hexenyl acetate, E2-hexenal, and β-caryophyllene | – |
| C=CC(=C)CCC=C(C)C [β-Myrcene] | floral volatile compounds methyl 2-methoxybenzoate, β-myrcene, and ethyl butyrate | – |
